Results as given in US8288371B2, “Ortho pyrrolidine, benzyl-substituted heterocycle CCR1 antagonists for autoimmune diseases and inflammation” (Pharmacopeia, LLC, priority 2007, dated 2012).

biological target: T1, human CCR1 (Homo sapiens, UniProt P32246); assay: CCR1 binding protocol (SPA, [125I]-MIP-1α displacement); conditions: cell membrane expressing human CCR1, 0.1 nM [125I]-MIP-1α, 4 hours at ambient temperature; read-out: Relative potency (IC50)
T1 sequence (P32246 1-355): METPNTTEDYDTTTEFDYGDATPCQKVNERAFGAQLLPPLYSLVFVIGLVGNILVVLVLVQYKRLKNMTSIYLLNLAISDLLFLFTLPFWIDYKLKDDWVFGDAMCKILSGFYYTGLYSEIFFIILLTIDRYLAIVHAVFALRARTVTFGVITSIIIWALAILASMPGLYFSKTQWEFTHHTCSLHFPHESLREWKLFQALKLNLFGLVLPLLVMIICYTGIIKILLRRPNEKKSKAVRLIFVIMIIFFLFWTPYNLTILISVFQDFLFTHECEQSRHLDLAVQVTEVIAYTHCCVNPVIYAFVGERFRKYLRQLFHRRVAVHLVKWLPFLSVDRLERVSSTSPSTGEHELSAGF
Summary of the method: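 Displacement of 0.1 nM [125I]-MIP-1α (final) from membranes expressing human CCR1 was measured by scintillation proximity after 4 h at ambient temperature. Conditions: pH 7.4 Tris buffer with 0.1% BSA and MnCl, and 0.5 μg membrane per well. Compounds were tested as a 10-step ½-log series from a 10 mM DMSO stock to derive IC50.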

| Compound | IC50 [nM] |
| --- | --- |
| Cc1nnc([C@H]2CCCN2C(=O)NCC2(c3cccs3)CCOCC2)n1Cc1ccc(Cl)cc1 [Compound 623] | 500 to 5000 |
| Cc1nc(C(F)(F)F)ccc1[C@H](C)NC(=O)N1CCC[C@@H]1c1nnc(C)n1Cc1ccc(Cl)cc1 [Compound 624] | < 50 |
| CC[C@H](NC(=O)N1CCC[C@@H]1c1nnc(C)n1Cc1ccc(Cl)cc1)c1ccc(C(F)(F)F)nc1C [Compound 627] | < 50 |
| O=C(Nc1ccc(Cl)cc1F)N1CCC[C@@H]1c1nnsc1Cc1ccc(Cl)cc1 [Compound 628] | 50 to 500 |
| Cc1noc(C)c1CC(=O)N1CCC[C@@H]1c1nncn1Cc1ccc(Cl)cc1 [Compound 629] | 50 to 500 |
| Cc1noc(C)c1CC(=O)N1C[C@@H](O)C[C@@H]1c1nnc(C)n1Cc1ccc(Cl)cc1 [Compound 630] | 50 to 500 |
| Cc1noc(C)c1CC(=O)N1CCC[C@@H]1c1ncnn1Cc1ccc(Cl)cc1 [Compound 631] | 500 to 5000 |
| Cc1nc(C(F)(F)F)ccc1NC(=O)N1CCC[C@@H]1c1nnsc1Cc1ccc(Cl)cc1 [Compound 632] | < 50 |
| CCc1cc(Cn2c(C)nnc2[C@H]2CCCN2C(=O)Nc2ccc(C(F)(F)F)nc2C)ccc1Cl [Compound 634] | < 50 |
| Cc1nc(C(F)(F)F)ccc1NC(=O)N1CC=C[C@@H]1c1nnc(C)n1Cc1ccc(Cl)cc1 [Compound 636] | < 50 |

The remaining lines, values ahead:

| IC50 [nM] | Compound |
| --- | --- |
| 500 to 5000 | Cc1nnc([C@H]2CCCN2C(=O)Nc2cccc(-c3ccnn3C)c2)n1Cc1ccc(Cl)cc1 [Compound 620] |
| 50 to 500 | Cc1nnc([C@H]2CCCN2C(=O)Nc2cccc(-c3ccn(C)n3)c2)n1Cc1ccc(Cl)cc1 [Compound 621] |
| < 50 | Cc1nnc([C@H]2CCCN2C(=O)NCc2ccccc2-c2cc(C(F)(F)F)nn2C)n1Cc1ccc(Cl)cc1 [Compound 622] |
| < 50 | CC[C@H](NC(=O)N1CCC[C@@H]1c1nnc(C)n1Cc1ccc(Cl)cc1)c1ccc(C)nc1C [Compound 625] |
| 50 to 500 | Cc1ccc([C@H](C)NC(=O)N2CCC[C@@H]2c2nnc(C)n2Cc2ccc(Cl)cc2)c(C)n1 [Compound 626] |
| 50 to 500 | Cc1nnc([C@H]2CCCN2C(=O)Nc2ccc(C(F)(F)F)nc2)n1Cc1ccc(Cl)cc1 [Compound 633] |
| 50 to 500 | CCc1cc(Cn2c(C)nnc2[C@H]2CCCN2C(=O)Nc2ccc(Cl)cc2F)ccc1Cl [Compound 635] |
